{
  "source": "patent EP4806891A1",
  "about": "(Kangbaida (Sichuan) Biotechnology Co., Ltd., priority 2023, dated 2025)",
  "data": [
    {"target": "T1, HEK-Blue-hTLR8 cells (Homo sapiens, UniProt Q9NR97)", "T1 construct": "expressed in transfected cells; host or cells: HEK-Blue-hTLR8 cells (HEK293-derived reporter line)", "T1 sequence (Q9NR97 27-1041)": "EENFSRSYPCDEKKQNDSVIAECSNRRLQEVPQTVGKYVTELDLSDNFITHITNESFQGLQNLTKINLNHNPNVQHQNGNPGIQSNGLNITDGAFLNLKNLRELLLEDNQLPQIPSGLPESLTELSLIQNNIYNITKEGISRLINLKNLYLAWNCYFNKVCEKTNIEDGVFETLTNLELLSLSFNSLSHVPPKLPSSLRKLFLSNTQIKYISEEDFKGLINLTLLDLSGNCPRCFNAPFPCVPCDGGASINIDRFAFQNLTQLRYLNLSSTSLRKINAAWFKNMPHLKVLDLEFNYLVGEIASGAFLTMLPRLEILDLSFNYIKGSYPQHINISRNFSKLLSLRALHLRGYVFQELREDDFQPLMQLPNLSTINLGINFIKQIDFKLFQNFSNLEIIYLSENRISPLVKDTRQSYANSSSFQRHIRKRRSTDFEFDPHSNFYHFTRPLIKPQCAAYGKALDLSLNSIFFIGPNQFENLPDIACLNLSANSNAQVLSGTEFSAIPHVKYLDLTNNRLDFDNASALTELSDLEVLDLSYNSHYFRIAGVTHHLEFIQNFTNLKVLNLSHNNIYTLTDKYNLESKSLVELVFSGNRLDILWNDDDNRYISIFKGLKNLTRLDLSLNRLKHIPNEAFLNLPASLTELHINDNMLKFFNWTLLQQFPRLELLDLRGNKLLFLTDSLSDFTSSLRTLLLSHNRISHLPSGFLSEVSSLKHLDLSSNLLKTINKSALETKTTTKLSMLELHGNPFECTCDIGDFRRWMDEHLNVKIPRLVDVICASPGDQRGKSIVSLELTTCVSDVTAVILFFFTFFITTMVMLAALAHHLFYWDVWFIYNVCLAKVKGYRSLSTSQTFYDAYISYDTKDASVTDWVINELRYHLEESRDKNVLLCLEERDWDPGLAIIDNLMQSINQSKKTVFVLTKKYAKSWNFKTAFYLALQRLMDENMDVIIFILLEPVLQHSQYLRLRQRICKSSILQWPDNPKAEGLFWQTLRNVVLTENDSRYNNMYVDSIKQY", "experiment": "HEK-Blue-hTLR8 cell inhibition assay", "format": "cell-based", "details": "R848 3 µM, 16 h, OD 620 nm, read-out: TLR8 IC50", "method_in_brief": "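Cells were pre-incubated 4 h, then co-treated 16 h at 37 °C with compound (10 doses, 0.5–10000 nM final) plus R848 (0.8 µM for TLR7, 3 µM for TLR8) or ODN2006 (1 µM, TLR9). Reporter OD620 gave inhibition relative to DMSO blank and agonist-only controls; IC50 came from curve fitting.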", "units": {"IC50": "nM"}, "values": [
      {"smiles": "N#Cc1ccc(N2C[C@]3(c4nnc(C5CNCC(F)C5)o4)C[C@]3(C(F)(F)F)C2)c2cccnc12", "note": "(stereo partly drawn) [Compound 45, 5-((1R,5S)-1-((difluoro-3-methyl)-12-fluoraneyl)-5-(5-(5-fluoropiperidin-3-yl)-1,3,4-oxadiazol-2-yl)-3-azabicyclo[3.1.0]hexan-3-yl)quinoline-8-carbonitrile]", "IC50": "< 100"},
      {"smiles": "N#Cc1ccc(N2C[C@]3(c4nnc(C5(F)CCNC5)o4)C[C@]3(C(F)(F)F)C2)c2cccnc12", "note": "(stereo partly drawn) [Compound 46, 5-((1S,5R)-1-(5-(3-fluoropyrrolidin-3-yl)-1,3,4-oxadiazol-2-yl)-5-(trifluoromethyl)-3-azabicyclo[3.1.0]hexan-3-yl)quinoline-8-carbonitrile]", "IC50": "< 100"},
      {"smiles": "CN1CCC(F)(c2nnc([C@]34CN(c5ccc(C#N)c6ncccc56)C[C@@]3(C(F)(F)F)C4)o2)C1", "note": "(stereo partly drawn) [Compound 47, 5-((1S,5R)-1-(5-(3-fluoro-1-methylpyrrolidin-3-yl)-1,3,4-oxadiazol-2-yl)-5-(trifluoromethyl)-3-azabicyclo[3.1.0]hexan-3-yl)quinoline-8-carbonitrile]", "IC50": "< 100"},
      {"smiles": "CN1CC(F)(c2nnc([C@]34CN(c5ccc(C#N)c6ncccc56)C[C@@]3(C(F)(F)F)C4)o2)C1", "note": "[Compound 49, 5-((1S,5R)-1-(5-(3-fluoro-1-methylazetidin-3-yl)-1,3,4-oxadiazol-2-yl)-5-(trifluoromethyl)-3-azabicyclo[3.1.0]hexan-3-yl)quinoline-8-carbonitrile]", "IC50": "< 100"},
      {"smiles": "CN1CCC(c2nnc([C@]34CN(c5ccc(C#N)c6ncccc56)C[C@@]3(C(F)(F)F)C4)o2)C(F)C1", "note": "(stereo partly drawn) [Compound 50, 5-((1S,5R)-1-(5-(3-fluoro-1-methylpiperidin-4-yl)-1,3,4-oxadiazol-2-yl)-5-(trifluoromethyl)-3-azabicyclo[3.1.0]hexan-3-yl)quinoline-8-carbonitrile]", "IC50": "< 100"},
      {"smiles": "CN(C)CCc1nnc([C@]23CN(c4ccc(C#N)c5ncccc45)C[C@@]2(C(F)(F)F)C3)o1", "note": "[Compound 51, 5-((1S,5R)-1-(5-(2-(dimethylamino)ethyl)-1,3,4-oxadiazol-2-yl)-5-(trifluoromethyl)-3-azabicyclo[3.1.0]hexan-3-yl)quinoline-8-carbonitrile]", "IC50": "< 100"},
      {"smiles": "N#Cc1ccc(N2C[C@]3(c4nnc(C56CCC(N)(CC5)CC6)o4)C[C@]3(C(F)(F)F)C2)c2cccnc12", "note": "[Compound 52, 5-((1S,5R)-1-(5-(4-aminobicyclo[2.2.2]octan-1-yl)-1,3,4-oxadiazol-2-yl)-5-(trifluoromethyl)-3-azabicyclo[3.1.0]hexan-3-yl)quinoline-8-carbonitrile]", "IC50": "< 100"},
      {"smiles": "CN(C)C12CCC(c3nnc([C@]45CN(c6ccc(C#N)c7ncccc67)C[C@@]4(C(F)(F)F)C5)o3)(CC1)CC2", "note": "[Compound 53, 5-((1S,5R)-1-(5-(4-(dimethylamino)bicyclo[2.2.2]octan-1-yl)-1,3,4-oxadiazol-2-yl)-5-(trifluoromethyl)-3-azabicyclo[3.1.0]hexan-3-yl)quinoline-8-carbonitrile]", "IC50": "< 100"},
      {"smiles": "N#Cc1ccc(N2C[C@]3(c4nnc(C56CCC(NC(=O)[C@@H]7COCCN7)(CC5)CC6)o4)C[C@]3(C(F)(F)F)C2)c2cccnc12", "note": "[Compound 54, (S)-N-(4-(5-((1S,5R)-3-(8-cyanoquinolin-5-yl)-5-(trifluoromethyl)-3-azabicyclo[3.1.0]hexan-1-yl)-1,3,4-oxadiazol-2-yl)bicyclo[2.2.2]octan-1-yl)morpholine-3-carboxamide]", "IC50": "< 100"},
      {"smiles": "N#Cc1ccc(N2C[C@]3(c4nnc([C@H]5CN(CC(N)=O)CCO5)o4)C[C@]3(C(F)(F)F)C2)c2cccnc12", "note": "[Compound 56, 2-((R)-2-(5-((1S,5R)-3-(8-cyanoquinolin-5-yl)-5-(trifluoromethyl)-3-azabicyclo[3.1.0]hexan-1-yl)-1,3,4-oxadiazol-2-yl)morpholino)acetamide]", "IC50": "< 100"},
      {"smiles": "N#Cc1ccc(N2C[C@]3(c4nnc(C5(F)CCNCC5)o4)C[C@]3(C(F)(F)F)C2)c2cccnc12", "note": "[Compound 60, 5-((1S,5R)-1-(5-(4-fluoropiperidin-4-yl)-1,3,4-oxadiazol-2-yl)-5-(trifluoromethyl)-3-azabicyclo[3.1.0]hexan-3-yl)quinoline-8-carbonitrile]", "IC50": "< 100"},
      {"smiles": "COc1ccc(N2C[C@]3(c4nnc(C5CCN(C)CC5)o4)C[C@]3(C(F)(F)F)C2)c2cccnc12", "note": "[Compound 66, 2-((1S,5R)-3-(8-methoxyquinolin-5-yl)-5-(trifluoromethyl)-3-azabicyclo[3.1.0]hexan-1-yl)-5-(1-methylpiperidin-4-yl)-1,3,4-oxadiazole]", "IC50": "< 100"},
      {"smiles": "CN1CCC(n2cc([C@]34CN(c5ccc(C#N)c6ncccc56)C[C@@]3(C(F)(F)F)C4)nn2)CC1", "note": "[Compound 71, 5-((1S,5R)-1-(1-(1-methylpiperidin-4-yl)-1H-1,2,3-triazol-4-yl)-5-(trifluoromethyl)-3-azabicyclo[3.1.0]hexan-3-yl)quinoline-8-carbonitrile]", "IC50": "< 100"},
      {"smiles": "FC(F)(F)c1ccc(N2C[C@]3(c4nnc(C5CCNCC5)o4)C[C@]3(C(F)(F)F)C2)c2cccnc12", "note": "[Compound 75, 2-(piperidin-4-yl)-5-((1S,5R)-5-(trifluoromethyl)-3-(8-(trifluoromethyl)quinolin-5-yl)-3-azabicyclo[3.1.0]hexan-1-yl)-1,3,4-oxadiazole]", "IC50": "< 100"},
      {"smiles": "FC(F)(F)c1ccc(N2C[C@]3(c4nnc(C5CCN(CC6CC6)CC5)o4)C[C@]3(C(F)(F)F)C2)c2cccnc12", "note": "[Compound 76, 2-(1-(cyclopropylmethyl)piperidin-4-yl)-5-((1S,5R)-5-(trifluoromethyl)-3-(8-(trifluoromethyl)quinolin-5-yl)-3-azabicyclo[3.1.0]hexan-1-yl)-1,3,4-oxadiazole]", "IC50": "< 100"},
      {"smiles": "NC(=O)CN1CCC(c2nnc([C@]34CN(c5ccc(C(F)(F)F)c6ncccc56)C[C@@]3(C(F)(F)F)C4)o2)CC1", "note": "[Compound 77, 2-(4-(5-((1S,5R)-5-(trifluoromethyl)-3-(8-(trifluoromethyl)quinolin-5-yl)-3-azabicyclo[3.1.0]hexan-1-yl)-1,3,4-oxadiazol-2-yl)piperidin-1-yl)acetamide]", "IC50": "< 100"},
      {"smiles": "CN1[C@@H]2CC[C@H]1C[C@H](c1nnc([C@]34CN(c5ccc(C(F)(F)F)c6ncccc56)C[C@@]3(C(F)(F)F)C4)o1)C2", "note": "[Compound 79, 2-((1R,3S,5S)-8-methyl-8-azabicyclo[3.2.1]octan-3-yl)-5-((1S,5R)-5-(trifluoromethyl)-3-(8-(trifluoromethyl)quinolin-5-yl)-3-azabicyclo[3.1.0]hexan-1-yl)-1,3,4-oxadiazole]", "IC50": "< 100"},
      {"smiles": "N#Cc1ccc(N2C[C@]3(c4nnc(C5CCNCC5)o4)C[C@]3(C(F)(F)F)C2)c2c(F)cnn12", "note": "[Compound 80, 3-fluoro-4-((1S,5R)-1-(5-(piperidin-4-yl)-1,3,4-oxadiazol-2-yl)-5-(trifluoromethyl)-3-azabicyclo[3.1.0]hexan-3-yl)pyrazolo[1,5-a]pyridine-7-carbonitrile]", "IC50": "< 100"},
      {"smiles": "NC12CCC(c3nnc([C@]45CN(c6ccc(C(F)(F)F)c7ncccc67)C[C@@]4(C(F)(F)F)C5)o3)(CC1)CC2", "note": "[Compound 81, 4-(5-((1S,5R)-5-(trifluoromethyl)-3-(8-(trifluoromethyl)quinolin-5-yl)-3-azabicyclo[3.1.0]hexan-1-yl)-1,3,4-oxadiazol-2-yl)bicyclo[2.2.2]octan-1-amine]", "IC50": "< 100"}
    ]}
  ]
}
